This is an account of results in PubChem BioAssay (NCI).

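96-well plates; 48 h exposure; 5 concentrations. Endpoints by linear interpolation between flanking doses. Not reached: highest tested concentration assigned. At the TGI there is no net growth.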

Common to all, as to assay: NCI tumour cell line growth inhibition, 48 h
Test [1] deals with 786-0 renal.
For test [2], the system named is A549 NSCLC.
Test [3] concerns CAKI-1 renal.
Test [4] concerns IGROV1 ovarian.
The subject of test [5] is MDA-MB-231 breast.
Test [6] relates to MOLT-4 leukemia.
Test [7] relates to NCI-H23 lung.
Test [8] deals with NCI-H522 lung.
Test [9] concerns OVCAR-3 ovarian.
Test [10] concerns OVCAR-8 ovarian.
The test system of test [11] is RPMI-8226 leukemia.
The subject of test [12] is SF-295 CNS.
The test system of test [13] is SN12C renal.
For test [14], the system named is SR leukemia.
Test [15] has as its system U251 CNS.
Test [16] concerns UACC-257 melanoma.
Test [17] deals with HL-60(TB) leukemia.

As to `Nc1ccc(-c2nc3ccc(F)cc3s2)cc1Cl`, the TGI was > 100 µM in test [1]; > 100 µM in test [2]; > 100 µM in [3]; > 100 µM in test [4]; 99.5 µM in test [5]; > 100 µM in [6]. The TGI is > 100 µM in [7]; > 100 µM in test [8]; > 100 µM in test [9]; > 100 µM in test [10]; > 100 µM in test [11]; > 89.2 µM in [12]. Besides, the TGI in test [13], in test [14], in test [15] and in test [16] was > 100 µM throughout.

Take `Cc1cccc2oc3c(c(=O)c12)CC(O)C(C)(C)O3` (centres undefined): the TGI in test [1] was > 100 µM; in [2], > 100 µM; in test [3], > 100 µM; in [17], 48.3 µM; in test [4], > 100 µM; in test [6], 83.2 µM. The TGI is > 100 µM in test [7]; 87.5 µM in [8]; > 100 µM in test [9]; > 100 µM in test [11]; > 100 µM in [12]; > 100 µM in test [13]. In addition, the TGI in test [14], in test [15] and in test [16] was > 100 µM in each case.

With `CCc1ccc2[nH]c(O)c(C3=Nc4ccccc4C3=O)c2c1`, the TGI in test [1] was 19 µM; in test [2], 59.7 µM; in test [3] it was > 100 µM; in test [4], 20.1 µM; in test [5] it was > 100 µM; in [6] it was 64.2 µM. Further, the TGI in test [7] is > 100 µM; in test [8], 75.2 µM; in [9], 51.8 µM; in test [10] it was 57 µM; in [11] it was > 100 µM; in test [12] it was 61.2 µM. Also, the TGI in test [13] is > 100 µM; in [14], 37.8 µM; in test [15], 38.2 µM; in test [16] it was > 100 µM.

For `O=C(Nc1cccc(F)c1)c1cc2ccc(O)cc2oc1=Nc1cccc(F)c1`, the TGI was > 100 µM in [1]; > 100 µM in test [2]; > 100 µM in test [3]; 10.1 µM in test [17]; 5.73 µM in test [4]; 32.4 µM in test [6]. Moreover, the TGI in test [7] is 6.12 µM; in test [8], 13 µM; in test [9], > 100 µM; in test [10] it was 6.32 µM; in test [11], > 100 µM; in test [12], > 100 µM. In addition, the TGI in test [13], in [14], in test [15] and in test [16] was > 100 µM throughout.

Regarding `Cc1cccc2[nH]c3c(c(O)cc4[nH]c5cccc(C)c5c(=O)c43)c(=O)c12`, the TGI in test [1] was 8.03 µM; in test [2], > 10 µM; in test [3], > 10 µM; in [17], > 10 µM; in test [4], > 10 µM; in [5], > 10 µM. In addition, the TGI in test [6] is > 10 µM; in [7] it was 8.5 µM; in test [8], > 10 µM; in test [9], > 10 µM; in [10], > 10 µM; in test [11], > 10 µM. Besides, the TGI in [12], in [13], in test [15] and in test [16] was > 10 µM throughout.

For `Cc1ccc2nc3n[nH]c(N)c3nc2c1`, the TGI in [1], in test [2], in test [3], in test [4], in test [5] and in [6] was > 100 µM in each case. The TGI in test [7], in test [8], in [9], in [10], in test [11] and in test [12] was > 100 µM each time. Also, the TGI in [13], in [14], in [15] and in test [16] was > 100 µM in each case.

For the compound `Clc1ccc(-c2cc(-c3cc4cc(Br)ccc4nc3Cl)on2)cc1`, the TGI in test [1] was > 50 µM; in test [2], > 50 µM; in test [3] it was > 50 µM; in [17], 4.89 µM; in test [4] it was > 50 µM; in test [6], 47.3 µM. The TGI is 46.5 µM in test [7]; 21.8 µM in [8]; 30.7 µM in test [9]; > 50 µM in test [10]; 41.7 µM in test [11]; > 50 µM in [12]. The TGI in test [13] was > 50 µM; in test [14] it was > 50 µM; in test [16] it was 46 µM.

As to `CC(O)c1cc2c(s1)C(=O)c1c(C(C)O)csc1C2=O` (centres undefined), the TGI in test [1] turned out to be 2.08 µM; in test [2] it was 0.355 µM; in [3], 1.01 µM; in [17] it was 0.0415 µM; in test [4], 0.468 µM; in test [5], 0.482 µM. The TGI was 0.24 µM in [7]; 1.13 µM in [8]; 0.135 µM in test [9]; 0.717 µM in [10]; 0.801 µM in test [11]; 0.255 µM in [12]. Moreover, the TGI worked out at 0.349 µM in [13], 4.32 µM in test [15] and 0.216 µM in test [16].

Take `N#CCCN(CCC#N)c1ccc(/C=C2\N=C(c3ccccc3)N(c3ccc(C(=O)O)cc3)C2=O)cc1`: the TGI in [1] is > 100 µM; in test [2], > 100 µM; in test [4], 53.3 µM; in [5] it was > 100 µM; in test [9] it was > 100 µM; in [10] it was 73.1 µM. Also, the TGI in test [11], in test [12], in [13], in test [15] and in test [16] was > 100 µM throughout.

As for `CCOC(=O)c1sc2c(c1OC(=O)c1cc(OC)c(OC)c(OC)c1)c(=O)n(-c1ccccc1)c(=S)n2-c1ccccc1`, the TGI in [1], in test [2], in test [3], in test [17], in test [4] and in test [5] was > 100 µM each time. The TGI is > 100 µM in test [6]; > 100 µM in test [7]; 63.1 µM in test [8]; > 100 µM in test [9]; > 100 µM in test [10]; > 100 µM in test [11]. In addition, the TGI in [12], in [13], in test [15] and in [16] was > 100 µM each time.

As for `O=C1NC(Nc2ccccc2)=N/C1=C\c1c(Cl)cccc1Cl`, the TGI in test [1] was 29.6 µM; in test [2], 52.1 µM; in test [3], > 100 µM; in test [17], > 100 µM; in [4], 62.4 µM; in [6], 64.1 µM. The TGI in test [7] is > 100 µM; in [8], > 100 µM; in test [9], > 100 µM; in test [10] it was 65.1 µM; in test [11], > 100 µM; in [12], > 100 µM. Further, the TGI was 46.6 µM in test [13], > 100 µM in test [14], 37.6 µM in test [15] and 78.1 µM in [16].

For the compound `COc1ccc(-c2c(-c3ccc(OC)cc3)n3c(=O)n(C)c(=O)n23)cc1`, the TGI in test [1], in test [2], in test [3], in test [4], in test [5] and in test [6] was > 100 µM in each case. For the same compound, the TGI in test [7] was > 100 µM; in [8] it was > 100 µM; in test [9], 51.6 µM; in test [10], 52.9 µM; in test [11], > 100 µM; in test [12], > 100 µM. Besides, the TGI in test [13], in test [15] and in test [16] was > 100 µM each time.

For `CCC(C)C(N)C(=O)N/N=C\c1c2c(nc3ccccc13)-c1cc3c(c(=O)n1C2)COC(=O)[C@]3(O)CC` (some centres undefined), the TGI was 1.12 µM in [1]; 14.2 µM in test [2]; 65.5 µM in test [3]; 0.68 µM in [17]; > 47 µM in test [4]; > 82.2 µM in [5]. In addition, the TGI in test [6] was 1.86 µM; in test [7], 0.401 µM; in test [8] it was 3.23 µM; in test [9], 8.95 µM; in test [10] it was > 20 µM; in test [11] it was 11.4 µM. Besides, the TGI in test [12] was 1.37 µM; in test [13], > 32.5 µM; in test [15] it was 0.669 µM; in test [16], 11.9 µM.

For `CC(=O)C(C(=O)c1ccc(C)cc1)[C@H]1OC(C)(C)O[C@H]1[C@H]1COC(C)(C)O1` (some centres undefined), the TGI in test [1] was 8.75 µM; in test [2], 22.9 µM; in test [3], 12.8 µM; in test [4], 11 µM; in test [5] it was 13.6 µM; in [6], > 50 µM. For the same compound, the TGI is 10 µM in test [7]; 14.2 µM in test [8]; 12.6 µM in [10]; > 50 µM in test [11]; 16.9 µM in test [12]; 6.39 µM in [13]. For the same compound, the values for the TGI in test [14], in test [15] and in test [16] were > 50 µM, 7 µM and 11.9 µM, respectively.
